# Patent US5089654A, “Chalcone derivatives” (Taisho Pharmaceutical Co., Ltd., priority 1989, dated 1992)
# How the values were obtained:
# stress ulcer = assay: Stress Ulcer Inhibition Test; assay type: in vivo, Male Wistar rats; conditions: Rattus norvegicus, 7 h, oral, Wistar rats, read-out: Inhibition ratio (stress ulcer)
# Protocol: Experiment 1 Stress Ulcer Inhibition Test
# (§1) The test drugs used were the compounds obtained in the foregoing Examples. Number in test drug column of Table 8 means a compound which is prepared in the correspondingly numbered Example.
# Also, symbols A-E in test drug column of Table 8 mean the following compounds used as the control compounds.
# The stress ulcer inhibition test was carried out according to a method of K. Takagi et al as described in Japan J. Pharmacol., vol. 18, page 9 (1968).
# Male Wistar rats weighing 160 to 180 g (7 animals for each group), after a 24 hour-fast, were given orally the test drug (50 mg/kg and/or 100 mg/kg) suspended in 0.4% CMC, and placed in the stress cage made of a galvanized wire net, which was then immerged into the thermostatic water bath kept on 23° C. until the lower part of the sternum of the animals. Seven hours later, the animals were lapotomized to measure the area of the mucosa produced in the stomach, and the inhibition ration was calculated.
# [1] = test system: gastric lesions induced by 0.6 N hydrochloric acid; assay: Gastric Mucosal Protection Test (gastric lesions induced by 0.6 N hydrochloric acid); assay type: in vivo, Male Wistar rats; conditions: Rattus norvegicus, oral, Wistar rats, 0.6 N HCl, read-out: Inhibition ratio (lesion index, gastric mucosal protection)
# Protocol: Experiment 2 Gastric Mucosal Protection Test
# as §1
# Also, symbols A-E in test drug column of Table 9 are as defined in Experiment 1.
# The test of protection effect against the gastric lesions induced by 0.6 N hydrochloric acid (gastric mucosal protection effect) was carried out according to a method of A. Robert et al as described in Gastroenterology,vol. 77, pages 433-443 (1979).
# Male Wistar rats weighing 180-210 g (7 animals for each group), after a 24 hour-fast, were given orally the test drug (50 mg/kg and/or 100 mg/kg) suspended in 0.4% CMC. After standing at room temperature for 2 hours, 0.6 N hydrochloric acid was given orally in a dose of 1 ml per rat. After standing at room temperature for a further one hour, rats were killed to measure the length of the gastric mucosal lesions induced in the stomachs, and total of the length was designated as the lesion index per rat.
# The inhibition ratio (%) was calculated by comparison of the lesion index of the group treated with the test drug with the untreated group.
# gastric acid secretion = assay: 2-DG-induced Acid Secretion Test, Gastric Lumen Perfused Rats; assay type: in vivo; conditions: intraperitoneal
# Protocol: Experiment 3 2-DG-induced Acid Secretion Test Gastric Lumen Perfused Rats
# The test was carried out according to the method of K. Watanabe et al in Eur. J. Pharmacology, vol. 90, page 11-17 (1983), and the inhibition ratio of gastric acid secretion of the test drug was calculated.
# Number and symbol in test drug column are as defined above.
# The test drug was given intraperitoneally.
smiles,measurement,setting,value
"CC(C)=CCOc1ccc(C(=O)/C=C/c2ccc(C)cc2)c(OCC(=O)O)c1 [D, 2'-carboxymethoxy-4-methyl-4'-(3-methyl-2-butenyloxy)chalcone, reference compound]",inhibition in vivo at 50 mg/kg,stress ulcer,< 10%
same,inhibition in vivo at 100 mg/kg,stress ulcer,26.2%
same,inhibition in vivo at 50 mg/kg,[1],< 10%
CCCCCc1ccc(/C=C/C(=O)c2ccc(OCC=C(C)C)cc2OCC(=O)O)cc1 [Example 27],inhibition in vivo at 50 mg/kg,stress ulcer,86.3%
CCCCCCCc1ccc(/C=C/C(=O)c2ccc(OCC=C(C)C)cc2OCC(=O)OCC)cc1 [Example 18],inhibition in vivo at 50 mg/kg,[1],37.6%
same,inhibition in vivo at 100 mg/kg,[1],53.8%
CCCCCCCCc1ccc(/C=C/C(=O)c2ccc(OCC=C(C)C)cc2OCC(=O)O)cc1 [Example 31],inhibition in vivo at 50 mg/kg,stress ulcer,77.2%
"CCCCCCCc1ccc(/C=C/C(=O)c2ccc(OCC=C(C)C)cc2OCC(=O)O)cc1 [Example 30, 2'-carboxymethoxy-4-n-heptyl-4'-(3-methyl-2-butenyloxy)chalcone]",inhibition in vivo at 50 mg/kg,stress ulcer,91.8%
same,inhibition in vivo at 50 mg/kg,[1],83.8%
same,inhibition in vivo at 100 mg/kg,[1],94.4%
CCCC/C=C/c1ccc(/C=C/C(=O)c2ccc(OCC=C(C)C)cc2OCC(=O)O)cc1 [Example 51],inhibition in vivo at 50 mg/kg,stress ulcer,93.3%
"CC(C)=CCOc1ccc(C(=O)/C=C/c2ccc(C(C)(C)C)cc2)c(OCC(=O)O)c1 [Example 44, 4-t-butyl-2'-carboxymethoxy-4'-(3-methyl-2-butenyloxy)chalcone]",inhibition in vivo at 50 mg/kg,stress ulcer,76%
same,inhibition in vivo at 100 mg/kg,stress ulcer,84.2%
same,inhibition in vivo at 50 mg/kg,[1],61.9%
same,inhibition in vivo at 100 mg/kg,[1],82.8%
same,Inhibition ratio of gastric acid secretion,gastric acid secretion; 30 mg/kg,54.3%
same,Inhibition ratio of gastric acid secretion,gastric acid secretion; 100 mg/kg,66.8%
CCCCCCCCCCCCCCCc1ccccc1/C=C/C(=O)c1ccc(OCC=C(C)C)cc1OCC(=O)O [Example 36],inhibition in vivo at 50 mg/kg,stress ulcer,48.7%
CC(C)=CCOc1ccc(C(=O)/C=C/c2ccc(CCC(C)C)cc2)c(OCC(=O)O)c1 [Example 28],inhibition in vivo at 50 mg/kg,stress ulcer,89%
"CC(C)=CCOc1ccc(C(=O)/C=C/c2ccc(C(=O)O)cc2)c(OCC(=O)O)c1 [A, 4-carboxy-2'-carboxymethoxy-4'-(3-methyl-2-butenyloxy)chalcone, reference compound]",inhibition in vivo at 50 mg/kg,stress ulcer,< 10%
same,inhibition in vivo at 50 mg/kg,[1],< 10%
C=CCCc1ccc(/C=C/C(=O)c2ccc(OCC=C(C)C)cc2OCC(=O)O)cc1 [Example 54],inhibition in vivo at 50 mg/kg,stress ulcer,56.9%
CCCCc1ccc(/C=C/C(=O)c2ccc(OCC=C(C)C)cc2OCC(=O)O)cc1 [Example 25],inhibition in vivo at 50 mg/kg,stress ulcer,61%
same,inhibition in vivo at 100 mg/kg,stress ulcer,63%
CCC(C)c1ccc(/C=C/C(=O)c2ccc(OCC=C(C)C)cc2OCC(=O)O)cc1 (centres unmarked) [Example 24],inhibition in vivo at 50 mg/kg,stress ulcer,70.5%
"CC(C)=CCOc1ccc(/C=C/C(=O)c2ccc(OCC=C(C)C)cc2OCC(=O)O)cc1 [C, 2'-carboxymethoxy-4,4'-bis(3-methyl-2-butenyloxy)chalcone, reference compound]",inhibition in vivo at 50 mg/kg,stress ulcer,< 10%
same,inhibition in vivo at 50 mg/kg,[1],< 10%
same,Inhibition ratio of gastric acid secretion,gastric acid secretion; 200 mg/kg,35.2%
"CC(C)=CCOc1ccc(C(=O)/C=C/c2ccc(C(C)(C)C)cc2)c(OC(C)C(=O)O)c1 (centres unmarked) [Example 45, 4-(t-butyl)-2'-(1-carboxethoxy)-4'-(3-methyl-2-butenyloxy)chalcone]",inhibition in vivo at 50 mg/kg,stress ulcer,50.4%
CCCCC/C=C/c1ccc(/C=C/C(=O)c2ccc(OCC=C(C)C)cc2OCC(=O)O)cc1 [Example 52],inhibition in vivo at 50 mg/kg,stress ulcer,93.4%
"CCCc1ccc(/C=C/C(=O)c2ccc(OCC=C(C)C)cc2OCC(=O)O)cc1 [E, 2'-carboxymethoxy-4'-(3-methyl-2-butenyloxy)-4-n-propylchalcone, reference compound]",inhibition in vivo at 50 mg/kg,stress ulcer,33.7%
same,inhibition in vivo at 100 mg/kg,stress ulcer,57.1%
same,inhibition in vivo at 50 mg/kg,[1],24.8%
"CCCCCCc1ccc(/C=C/C(=O)c2ccc(OCC=C(C)C)cc2OCC(=O)O)cc1 [Example 29, 2'-carboxymethoxy-4-n-hexyl-4'-(3-methyl-2-butenyloxy)chalcone]",inhibition in vivo at 50 mg/kg,stress ulcer,67.3%
same,inhibition in vivo at 50 mg/kg,[1],81.2%
same,inhibition in vivo at 100 mg/kg,[1],83.7%
CC(C)=CCOc1ccc(C(=O)/C=C/c2ccc(C(C)(C)C)cc2)c(OCCCC(=O)O)c1 [Example 48],inhibition in vivo at 100 mg/kg,stress ulcer,72%
"CC(C)=CCOc1ccc(C(=O)/C=C/c2ccc(OCC(=O)O)cc2)c(OCC(=O)O)c1 [B, 2',4-bis(carboxymethoxy)-4'-(3-methyl-2-butenyloxy)chalcone, reference compound]",inhibition in vivo at 50 mg/kg,stress ulcer,< 10%
same,inhibition in vivo at 50 mg/kg,[1],< 10%
CCCCCCc1ccc(/C=C/C(=O)c2ccc(OCC=C(C)C)cc2OC(C)C(=O)O)cc1 (centres unmarked) [Example 46],inhibition in vivo at 50 mg/kg,stress ulcer,63%
"CCCCCC/C=C/c1ccc(/C=C/C(=O)c2ccc(OCC=C(C)C)cc2OCC(=O)O)cc1 [Example 49, 2'-carboxymethoxy-4'-(3-methyl-2-butenyloxy)-4-(1-(E)-octenyl)chalcone]",inhibition in vivo at 50 mg/kg,stress ulcer,76.6%
